A value given as a limit tells only on which side of the number the result lay.

What is called melting point is the temperature, or range, at which the solid turns liquid.

Consider `O=C(O)c1cc(OC(F)F)cc(OC(F)F)c1`, for which the melting point lay in the range of 79 to 81 °C. In turn, `CS(=O)(=O)c1ccc(OCCN)cc1` had a melting point of 63 to 65 °C.

Regarding `CCC1(CO)CCNCC1`, the melting point lay within 59 to 61 °C. In turn, `Cc1cccc(NC(=O)NCC(=O)O)c1` yielded a melting point of 182 to 184 °C. `O=C(O)c1cc(-c2ccco2)nn1-c1ccccc1` returned a melting point of 159 to 161 °C. With `O=S(=O)(Cl)c1ccc(N2CCCS2(=O)=O)cc1`, the melting point is 184 to 186 °C. Consider `O=C(O)c1cc(-c2ccc(-c3ccccc3)cc2)nc2ccccc12`, for which the melting point lay in the range of 289 to 291 °C. The molecule `O=C1COc2cc(Br)ccc2N1` had a melting point of 192 to 194 °C. As for `COc1cccc(Cn2c(N)cc(=O)[nH]c2=O)c1`, the melting point was in the range of 292 to 294 °C.

As to `CC(=O)c1cc([N+](=O)[O-])ccc1C`, the melting point is 50 to 52 °C. `Nc1c(F)ccc(Br)c1C(=O)O` registered a melting point of 128 to 130 °C. In turn, `O=C(O)Cn1ccc2ccccc21` came in with a melting point of 169 to 171 °C. Take `COc1cc(NC(C)=O)ccc1I`: the melting point was 138 to 140 °C. `CC(C)(C)OC(=O)NCc1ccc(C(=O)O)c(C2CC2)n1` registered a melting point of 144 to 146 °C. Consider `CCOCc1cc(C(=O)O)ccc1OC`, for which the melting point is 142 to 146 °C. In the case of `O=C(O)C1(c2ccc(Cl)cc2)CCOCC1`, the melting point was 181 to 183 °C. Molecule `N#CCC(=O)NCc1ccco1` showed a melting point of 93 to 95 °C.

With `CN(C)c1cncc(Cl)n1`, the melting point lay in the range of 44 to 46 °C. Consider `NS(=O)(=O)c1cccc(NC(=O)c2ccc(Cl)cc2)c1`, for which the melting point was 93 to 96 °C.

`O=C1CSCc2c(F)cccc21` came in with a melting point of 59 to 61 °C. `CC(N)c1ccccc1-c1ccccc1` (stereo not drawn) returned a melting point of 76 to 78 °C. Molecule `CC(C)(C)c1ccc(Cl)nn1` gave a melting point of 83 to 85 °C. `CC(Br)c1cccc2ccccc12` (stereo not drawn) returned a melting point of 36 to 38 °C.

`NC(C(=O)O)c1ccc(Cl)cc1Cl` (stereo not drawn) came in with a melting point of 215 to 217 °C. With `FC(F)(F)CNc1ccccn1`, the melting point fell in the range of 70 to 72 °C. The molecule `NC(=S)c1cncnc1N` returned a melting point of 197 to 199 °C. Turning to `CC(C)(C)c1ccc(OCC(=O)O)c(C(C)(C)C)c1`, the melting point is less than 17 °C. Regarding `O=C(O)C(O)CCc1ccccc1` (stereo not drawn), the melting point lay within 114 to 117 °C. Regarding `Nc1cc2c(cc1N)OCCO2`, the melting point was in the range of 124 to 126 °C.

For `O=C(O)c1ccc(-c2nc(C3CC3)no2)cc1`, the melting point lay in the range of 241 to 243 °C.

`CC(C)CNC(=O)c1ccc(N)cc1Cl` registered a melting point of 100 to 102 °C. For `CC(C)(C)OC(=O)NCc1nnn[nH]1`, the melting point lay in the range of 153 to 155 °C.

`Nc1ccn(CC(=O)N2CCOCC2)n1` had a melting point of 168 to 170 °C. Take `CCCCOc1ccc(C=CC(=O)O)cc1OCC`: the melting point is 109 to 111 °C.

`O=C(CCl)Nc1cc(-n2nnnc2C2CC2)ccc1F` had a melting point of 119 to 121 °C. With `NC(C(=O)O)c1ccc2ccccc2c1` (stereo not drawn), the melting point was in the range of 251 to 253 °C. In the case of `O=C(O)CCn1nnnc1S`, the melting point is 156 to 158 °C. In the case of `O=C(O)c1ccccc1SCc1cccs1` it was 178 to 180 °C; in that of `CC(C)C(=O)N(C)Cc1ccc(C(=O)O)cc1`, 139 to 141 °C; in that of `C#Cc1c(F)cccc1F`, 34 to 36 °C. `CCC(C(=O)O)n1nnc(-c2ccc(Cl)cc2)n1` (stereo not drawn) yielded a melting point of 184 to 186 °C. As to `CCNC(=O)COc1ccc(N)cc1`, the melting point lay within 95 to 97 °C. Molecule `COc1ccccc1CC(C)CC(=O)O` (stereo not drawn) had a melting point of 49 to 51 °C. Turning to `NNC(=O)c1cc(-c2ccncc2)nc2ccccc12`, the melting point is 226 to 228 °C. `CC(C)(C)OC(=O)NC1CCCCCC1C(=O)O` (stereo not drawn) had a melting point of 123 to 125 °C. `CC(=O)N(C)c1nc(CCl)cs1`: the melting point lay within 139 to 141 °C. The result for `COc1ccc(Br)cc1Cl` reads 69 to 71 °C. For `Nc1ccc(OCc2ccncc2)cc1`, the melting point lay within 129 to 131 °C. Turning to `O=C(O)C(F)(F)c1ccc([N+](=O)[O-])cc1`, the melting point was 129 to 131 °C. Regarding `Nc1cc(C(F)(F)F)ccc1NCc1ccccc1`, the melting point lay within 70 to 75 °C. In turn, `N#C/C=C/c1ccc(Cl)cc1` had a melting point of 45 to 47 °C. The result for `O=C(O)CCOc1ccccc1Br` reads 111 to 113 °C; that for `COc1ccc(C=C(CC(=O)O)c2nc3ccccc3s2)cc1`, 154 to 156 °C. In the case of `CCc1cc2c(=O)n(N)cnc2s1`, the melting point was 137 to 139 °C.

As for `Cc1cccc(-c2nn(-c3ccc(F)cc3)cc2C(=O)O)c1`, the melting point fell in the range of 168 to 170 °C. `Cc1nnnn1C(Cc1cccc(F)c1)C(=O)O` (stereo not drawn) showed a melting point of 158 to 160 °C.

For `O=C(O)c1cc(S(=O)(=O)Cl)cc(Cl)c1F`, the melting point was 169 to 171 °C. `O=Cc1nc(-c2ccccc2)cs1` came in with a melting point of 61 to 63 °C. The result for `Fc1ccccc1-c1c[nH]c(C2CCCN2)n1` (stereo not drawn) reads 111 to 113 °C; that for `CC1(c2ccc(F)cc2Cl)NC(=O)NC1=O` (stereo not drawn), 214 to 216 °C; that for `COc1ccc2ccc(O)cc2c1`, 116 to 119 °C.

Turning to `CC1(c2ccc(F)cc2)NC(=O)N(CC(=O)O)C1=O` (stereo not drawn), the melting point lay in the range of 167 to 169 °C. `O=C(Nc1ccccc1I)C(F)(F)F` showed a melting point of 105 to 107 °C.

As for `Cc1ccnc(NN)c1`, the melting point lay in the range of 74 to 76 °C.

`Fc1ccc(-c2cncc(Cl)n2)cc1` registered a melting point of 95 to 97 °C. In the case of `Nc1nc(-c2cccc(Cl)c2)ns1` it was 149 to 151 °C; in that of `OC(CCc1ccccc1)CCc1ccccc1`, 44 to 46 °C.

`COc1ccc(NS(=O)(=O)c2c[nH]c(C(=O)O)c2)cc1Cl` yielded a melting point of 207 to 209 °C. The result for `Nc1ccccc1NC(=O)N1CCCC1` reads 127 to 129 °C; that for `Clc1ccc(CNC2=NCCS2)cc1`, 106 to 108 °C. `O=C(O)c1ccn(-c2c(F)cccc2F)n1`: the melting point was in the range of 179 to 181 °C. In the case of `CC(C)NC(=O)CN1CCCNCC1` it was 43 to 45 °C; in that of `COC(=O)c1nc(Cc2ccccc2Cl)n2ccccc12`, 131 to 133 °C.

In turn, `COC(=O)c1nnc2ccccc2c1Cl` gave a melting point of 147 to 149 °C.

Consider `NCc1noc(-c2ccccc2)n1`, for which the melting point lay within 115 to 117 °C. `COc1c(C=O)c(C)nn1C` came in with a melting point of 55 to 57 °C. Molecule `Cc1nc2ccccc2nc1Br` displayed a melting point of 102 to 104 °C. In turn, `OC1CCCOc2cc(Br)ccc21` (stereo not drawn) gave a melting point of 73 to 75 °C.

Molecule `NC(=O)c1cc(S(=O)(=O)N2CCCC2)ccc1O` came in with a melting point of 254 to 260 °C.

Regarding `COc1ccc(C(=O)Nc2cc(F)ccc2C(=O)O)cc1`, the melting point was 225 to 227 °C. Molecule `COc1ccc(C(C)=O)c2ccccc12` had a melting point of 64 to 66 °C. `CCc1cccc2c(CC(=O)O)c[nH]c12` showed a melting point of 175 to 177 °C. The molecule `O=C(O)c1occc1CSc1ccccc1` returned a melting point of 114 to 116 °C. Turning to `COc1cc(C(=O)O)ccc1OCc1ccccc1`, the melting point was 174 to 176 °C.

For the molecule `Cc1cc(CC#N)no1`, the melting point was 36 to 38 °C.

Take `CC(C)C(Br)C(=O)NC(C)(C)C` (stereo not drawn): the melting point fell in the range of 135 to 137 °C. The molecule `CC(NC(=S)NN)C1CC1` (stereo not drawn) had a melting point of 68 to 70 °C. `O=[N+]([O-])c1ccc(S(=O)(=O)Cl)c(Cl)c1`: the melting point is 75 to 77 °C. Turning to `Cc1nnnn1C(Cc1ccc(F)cc1)C(=O)O` (stereo not drawn), the melting point was 152 to 154 °C. In the case of `CC1c2ccccc2OC1C(=O)O` (stereo not drawn) it was 121 to 123 °C; in that of `O=C(O)c1nn(-c2ccccc2F)cc1O`, 202 to 204 °C. Molecule `CN1CCOC(C(=O)c2ccc(Cl)cc2)C1` (stereo not drawn) yielded a melting point of 59 to 61 °C. The molecule `CC(C)CNc1c(N)n(CC(C)C)c(=O)[nH]c1=O` showed a melting point of 197 to 199 °C.

In the case of `Sc1nccn1Cc1ccccc1`, the melting point is 146 to 148 °C. With `CCN1CCN(C(=O)c2ccc(N)cc2)CC1`, the melting point lay within 125 to 127 °C. As for `Cc1oc(Cn2cc(Br)cn2)cc1C(=O)O`, the melting point lay in the range of 159 to 161 °C. `CSc1ccc(C=NO)cc1` registered a melting point of 114 to 116 °C. `Cc1cccc(NC(=O)CSCC(=O)O)c1` gave a melting point of 200 to 206 °C. The molecule `NS(=O)(=O)C=Cc1ccc(F)cc1` showed a melting point of 148 to 150 °C. `O=C(NC(C(=O)O)c1ccccc1)c1cccs1` (stereo not drawn) showed a melting point of 185 to 187 °C. Consider `N#Cc1nc(Cl)cc(N)c1N`, for which the melting point was in the range of 249 to 251 °C. Regarding `COc1ccc(CCC(=O)Nc2ccccc2C(=O)O)cc1`, the melting point lay within 159 to 161 °C.

`C=CCn1c(S)nnc1C1CCS(=O)(=O)C1` (stereo not drawn) had a melting point of 101 to 103 °C. For `O=C(O)CCCn1c(=O)oc2ccccc21`, the melting point lay within 141 to 143 °C.

As to `C#Cc1cccc(NC(N)=O)c1`, the melting point lay within 153 to 155 °C. `CCCOc1ccc(C#N)cc1OC` returned a melting point of 90 to 92 °C. The result for `COc1ccc(CCCC(=O)O)cc1F` reads 63 to 65 °C; that for `Cc1ccc(-c2cnnc(N)n2)o1`, 274 to 276 °C; that for `O=C(O)c1csc(-c2ccoc2)n1`, 166 to 168 °C. Turning to `Cc1c[nH]c(=O)n1-c1ccc(C(=O)O)cc1`, the melting point lay in the range of 285 to 287 °C. For the molecule `Cc1cccc(OCCC(=O)O)c1`, the melting point lay within 99 to 101 °C. `O=C(O)c1csc(Br)c1`: the melting point lay in the range of 137 to 139 °C. In turn, `CCOC(=O)c1sc(SC)nc1N` yielded a melting point of 80 to 82 °C. In the case of `NC(=O)COc1ccc(C=O)cc1`, the melting point was in the range of 134 to 136 °C. Molecule `Clc1cc2c(cc1Cl)OCO2` showed a melting point of 71 to 73 °C. Turning to `N#Cc1ccc(F)c(CO)c1`, the melting point was in the range of 48 to 50 °C. Molecule `Cc1cc(NS(=O)(=O)C(F)(F)F)ccc1C(=O)O` came in with a melting point of 169 to 171 °C. `O=C(O)C1(c2ccc(F)cc2F)CCC1` registered a melting point of 64 to 66 °C. In the case of `CC(C)(C)OC(=O)n1ccc(N)n1` it was 129 to 131 °C; in that of `CC(=O)Nc1ccc(-c2csc(N)n2)c(F)c1`, 204 to 206 °C; in that of `NS(=O)(=O)c1cccc2c1OCCO2`, 173 to 175 °C. `O=C(Nc1nnc(C2CCCCC2)s1)OCC(F)(F)F` showed a melting point of 182 to 184 °C. In turn, `O=c1[nH]c(S)nc2ccc(F)cc12` yielded a melting point of 345 to 347 °C.
